Test results reported in PMC4900596 (PLoS ONE, 2016).
Converted amounts (≈) assume the structure as drawn. Read-outs that look alike come from different tables or passages of the source.

Columns and labels:
[1] = system: human peripheral blood mononuclear cells (PBMCs); experiment: Cell viability (necrotic changes), calcein-AM/propidium iodide staining, flow cytometry; assay type: cell-based; conditions: for concentration from which a decrease in cell viability was noted: significant vs control (P < 0.05); for IC50: PBMC, human PBMCs, 24 h incubation, unit mM printed in b27 only
Experimental: (§1) PBMCs were isolated from leucocyte-buffy coat collected from blood obtained in Blood Bank in Lodz, Poland. […] The testing was approved by the Bioethics Committee of the University of Lodz No. KBBN-UŁ/I/3/2013. PBMCs were diluted with PBS (1:4) and isolated using LSM (1.077 g/cm^3) by centrifugation at 600 g for 30 min at 20°C. PBMCs were collected, suspended in erythrocyte lysis buffer (150 mM NH4Cl, 10 mM NaHCO3, 1 mM EDTA, pH 7.4) and incubated for 5 min at 20°C. Then, PBS was added immediately, and the cells were centrifuged at 200 g for 15 min at 20°C. The supernatant was decanted, and the cells were washed twice with RPMI with L-glutamine and 10% fetal bovine serum (FBS) at 200 g for 15 min. The cells were resuspended in RPMI medium with L-glutamine, 10% FBS and penicylin-streptomycin (0.5%) and counted in haemocytometer. […] The viability of the cells was over 95%.
The calcein-AM/propidum iodide (PI) viability test is commonly used in toxicity assays to detect cell membrane integrity and to quantify the number of viable and necrotic cells. The calcein-AM is hydrolyzed to calcein, which has a negative charge and penetrates living cells, staining them green. PI is one of the most widely used fluorescent markers for staining of necrotic cells. This compound penetrates the cells, in which membrane was damaged, and binds to DNA. This dye has two positive charges, which prevent it from entering intact cells. […] After the incubation, the samples were centrifuged at 300 g for 5 min at 4°C, the supernatant was decanted, and the cells were supplemented with RPMI with L-glutamine and 10% FBS. The samples were treated with calcein-AM and PI in the final concentrations of 0.1 and 1 μM, respectively and incubated for 15 min at 37°C in total darkness. The analysis was performed by flow cytometry (Becton Dickinson, LSR II). FCM gate on PBMCs has been established for data acquisition, and the fluorescence was measured with excitation/emission maxima of 494/517 nm and 535/617 nm for calcein and PI, respectively. The data were recorded for a total of 10,000 events per sample.

[2] = system: human peripheral blood mononuclear cells (PBMCs); experiment: Determination of the level of adenosine-5'-triphosphate (ATP), luciferase bioluminescence; assay type: cell-based; conditions: for concentration from which a decrease in ATP level was observed / ATP level decreased by up to: 24 h; for concentration from which a decrease in ATP level was observed: significant vs control; for IC50: PBMC, human PBMCs, 24 h incubation, unit inferred, read-out: IC50 for changes in ATP level; for ATP level decreased by up to: 10 mM, control = 100%
Experimental: as §1
The level of ATP in the cells was determined by bioluminescence measurement at 560 nm using recombinant luciferase and its substrate, D-luciferin. The high sensitivity of method enables detection of 0.1 pM ATP. The reaction proceeds in two stages. In the first step, as a result of the reaction of ATP with luciferin, a complex of adenosine with luciferin is formed with simultaneous releasing of phosphate group. Secondly the complex reacts with oxygen resulting in a formation of oxyluciferin and adenosine monophosphate (AMP). Oxyluciferin returning from its excited state to the base state emits luminescence. The reaction requires the presence of magnesium ions.

[3] = system: human peripheral blood mononuclear cells (PBMCs); experiment: Measurement of cell morphology: size (FSC-A) and granularity (SSC-A) by flow cytometry; assay type: cell-based; conditions: for concentration from which changes in PBMCs granularity (SSC-A) occurred / concentration causing statistically significant changes in FSC-A parameter: 24 h incubation; for activity at 10 µM / activity at 50 µM / activity at 100 µM / activity at 250 µM / activity at 500 µM / activity at 5000 µM: Homo sapiens, PBMC, 4 h; for activity at 10 µM: 0.01 mM; for activity at 50 µM: 0.05 mM; for activity at 100 µM: 0.1 mM; for activity at 250 µM: 0.25 mM; for activity at 500 µM: 0.5 mM; for activity at 5000 µM: 5.0 mM; for increase in FSC-A parameter / increase in SSC-A parameter: strongest change, concentration and time not given
Experimental: as §1
The cells were then analyzed using a flow cytometry (LSR II; Becton-Dickinson). FMC gate on PBMCs has been established for data acquisition, and cell size and granularity were evaluated with simultaneous separate detection of low-angle (FSC-A) and right-angle (SSC-A) light scattering. […] The light scattered near the forward direction (low angle) is expected to be proportional to particle size (volume), whereas scattering at the right angle depends on cell granularity (internal properties of the scattered particles).

[4] = system: HUVEC cell line, human kidney cells 293, placenta JEG3 cells; conditions: MTT; cited from earlier work
[5] = system: choriocarcinoma cell line; conditions: MTT test; cited from earlier work
PBMCs = conditions: cited from earlier work
[6] = read-out: FSC-A (percent of control)
[7] = read-out: SSC-A (percent of control)

Structure (SMILES) | concentration from which a decrease in cell viability was noted ([1]; 24 h) [mM] | IC50 [1] [mM] | concentration from which a decrease in ATP level was observed [2] [mM] | IC50 [2] [mM] | concentration from which changes in PBMCs granularity (SSC-A) occurred [3] [mM] | activity at 10 µM [3, 6] [%] | activity at 10 µM [3, 7] [%] | activity at 50 µM [3, 6] [%] | activity at 50 µM [3, 7] [%] | activity at 100 µM [3, 6] [%] | activity at 100 µM [3, 7] [%] | activity at 250 µM [3, 6] [%] | activity at 250 µM [3, 7] [%] | activity at 500 µM [3, 6] [%] | activity at 500 µM [3, 7] [%] | activity at 5000 µM [3, 6] [%] | activity at 5000 µM [3, 7] [%] | PBMCs viability decreased by up to ([1]; 10 mM, 24 h, control = 100%) [%] | ATP level decreased by up to [2] [%] | concentration causing statistically significant changes in FSC-A parameter [3] [mM] | further results
NCP(=O)(O)O [AMPA, aminomethylphosphonic acid] | ≥ 0.5 | > 10 | ≥ 5 | > 10 | ≥ 5 | 101 ± 4.61 | 101 ± 3.75 | 101 ± 4.45 | 100 ± 3.47 | 101 ± 5.04 | 101 ± 2.26 | 101 ± 3.96 | 101 ± 5.74 | 102 ± 3.93 | 101 ± 5.35 | 99.6 ± 5.18 | 102 ± 4.76 | – | – | – | –
O=P(O)(O)CNCP(=O)(O)O [Bis-(phosphonomethyl)amine, bis-(phosphonomethyl)amine] | ≥ 7.5 | 8.7 | ≥ 0.5 | 5.3 | ≥ 7.5 | 101 ± 2.38 | 98.4 ± 2.94 | 99.7 ± 2.54 | 100 ± 2.55 | 99.6 ± 2.04 | 100 ± 3.68 | 100 ± 2.68 | 100 ± 2 | 101 ± 3.34 | 101 ± 1.12 | 100 ± 3.88 | 103 ± 3.17 | 37.2 | 3.4 | ≥ 7.5 | increase in FSC-A parameter [3]: 9%; increase in SSC-A parameter [3]: 92%
O=C(O)CNCP(=O)(O)O [Glyphosate, N-phosphonomethylglycine, reference compound] | – | > 10 | ≥ 5 | 9.6 | ≥ 0.5 | 102 ± 3.55 | 99.2 ± 4.71 | 102 ± 2.94 | 99.7 ± 7.75 | 102 ± 2.38 | 101 ± 9.59 | 102 ± 4.69 | 101 ± 8.1 | 102 ± 3.89 | 102 ± 5.94 | 101 ± 3 | 104 ± 7.27 | – | – | – | decrease in cell viability ([1]; 10 mM, 24 h, control = 100%): 2.7%; concentration significantly affecting cell viability [4]: 100 µM; EC50 [5]: 16 mM; IC50 (cytotoxic effects) (PBMCs): 56.4 µg/mL (≈ 334 µM)
O=P(O)(O)CO [Hydroxy-methylphosphonic acid, hydroxymethylphosphonic acid] | ≥ 7.5 | > 10 | ≥ 5 | > 10 | ≥ 5 | 100 ± 2 | 96.8 ± 4.77 | 100 ± 1.84 | 97.6 ± 4.71 | 100 ± 1.91 | 99.4 ± 1.17 | 101 ± 3.68 | 100 ± 3.33 | 100 ± 2.4 | 101 ± 2.05 | 100 ± 2.94 | 102 ± 2.14 | – | – | – | –
CN(CC(=O)O)CP(=O)(O)O [N-methylglyphosate] | ≥ 7.5 | > 10 | ≥ 0.5 | > 10 | ≥ 5 | 102 ± 3.97 | 101 ± 4.68 | 102 ± 2.66 | 101 ± 4.81 | 103 ± 3.27 | 102 ± 3.57 | 101 ± 5.72 | 102 ± 4.73 | 101 ± 4.66 | 102 ± 8.82 | 100 ± 4.82 | 102 ± 7.27 | – | – | – | –
O=C(O)CN(CC(=O)O)CP(=O)(O)O [PMIDA, N-(phosphonomethyl)iminodiacetic acid] | ≥ 5 | 7.9 | ≥ 5 | 6.1 | 10 | 100 ± 2.09 | 97.5 ± 4.97 | 100 ± 2.21 | 98.1 ± 5.81 | 100 ± 3.36 | 99.2 ± 5.42 | 100 ± 2.65 | 99.3 ± 4.63 | 100 ± 2.65 | 99.8 ± 6.3 | 101 ± 4.59 | 105 ± 5.12 | 3.4 | 2.1 | 10 | increase in FSC-A parameter [3]: 13%; increase in SSC-A parameter [3]: 150%
